Assay results reported in PubChem BioAssay (NCI).
“And” between values parts separate entries of the source, which are not always exact repeats. Equal values may be shown once.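 The compound was tested at five concentrations on cells cultured in 96-well plates, with a 48-hour exposure period. Here, GI50 denotes the concentration required for 50% inhibition of growth. At the TGI there is no net growth.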

How the values were obtained:
Assay in all cases: NCI anticancer screen, dose series, 48 h
RPMI-8226 leukemia = test system: RPMI-8226 leukemia
SF-539 CNS = test system: SF-539 CNS
HCC-2998 colon = test system: HCC-2998 colon
MDA-MB-231 breast = test system: MDA-MB-231 breast
RXF 393 renal = test system: RXF 393 renal
HT29 colon = test system: HT29 colon
MOLT-4 leukemia = test system: MOLT-4 leukemia
SK-MEL-28 melanoma = test system: SK-MEL-28 melanoma
PC-3 prostate = test system: PC-3 prostate
786-0 renal = test system: 786-0 renal

SMILES | TGI (RPMI-8226 leukemia) | TGI (SF-539 CNS) | TGI (HCC-2998 colon) | TGI (MDA-MB-231 breast) [µM] | TGI (RXF 393 renal) | TGI (HT29 colon) | TGI (MOLT-4 leukemia) | TGI (SK-MEL-28 melanoma) | TGI (PC-3 prostate) [µM] | TGI (786-0 renal) [µM] | GI50 (RPMI-8226 leukemia) [µM] | GI50 (HCC-2998 colon) [µM] | GI50 (RXF 393 renal) [µM] | GI50 (HT29 colon) [µM] | GI50 (MOLT-4 leukemia) [µM] | GI50 (SK-MEL-28 melanoma) [µM]
CC(=O)Nc1cccc(N2C(=O)/C(=C\c3cccc(Oc4ccccc4)c3)S(=O)(=O)C2c2ccccc2)c1 (stereo unspecified) | > 100 µM | > 100 µM | > 100 µM | > 100 | > 100 µM | > 100 µM | 62.6 µM | > 100 µM | > 100 | > 100 |  |  |  |  |  | 
COc1ccc(NC(C)=O)cc1N1C(=O)/C(=C\c2ccccc2)SC1c1cc(OC)c(OC)c(OC)c1 (stereo unspecified) | > 100 µM | 45.5 µM | 47.4 µM | > 100 | > 100 µM | > 100 µM | > 100 µM | > 100 µM | > 100 | 49.2 |  |  |  |  |  | 
N#CC1=C2SCCN2C(=O)C(C#N)C12CCCCC2 (stereo unspecified) | > 100 µM | > 100 µM | > 100 µM | > 100 | > 100 µM | > 100 µM | > 100 µM | > 100 µM | > 100 | > 100 |  |  |  |  |  | 
COc1cc(/C=N/c2nc3cc4sc(/N=C/c5cc(OC)c(OC)c(OC)c5)nc4cc3s2)cc(OC)c1OC | > 100 µM | 40.8 µM | > 100 µM | > 100 | > 100 µM | > 100 µM | > 100 µM | 39.1 µM | > 100 | > 100 |  |  |  |  |  | 
CCCCN1C(=O)c2c(Br)sc(Br)c2C1=O | > 100 µM | 69.1 µM | > 100 µM | > 100 | > 100 µM | 47.1 µM | 70.6 µM | > 100 µM | > 100 | > 100 |  |  |  |  |  | 
CCN(CC)CC[n+]1ccc2c(C)c3[nH]c4ccc(O)cc4c3c(C)c2c1 | 43.4 µM and 35.6 µM | 19 µM and 31.8 µM | 22.6 µM and 85.4 µM | 36.6 | 56.5 µM and 57.2 µM | 41.1 µM and > 67.5 µM | 11 µM and 12.4 µM | 21.3 µM and 44.8 µM | 31.8 | > 40.7 | 3.41 | 6.94 | 13.9 | 12.6 | 0.181 | 9.07
C=C1C(=O)O[C@@H]2/C=C(\C)CC/C=C(\C)CC[C@@]12O | 6.43 µM | 3.39 µM | 12.7 µM | 22.8 | 0.897 µM | 10.9 µM | 6.15 µM | 13.3 µM | 15.6 | 2.71 |  |  |  |  |  | 
CNC1Cc2c[nH]c3cccc(c23)C12C=C(C)C(=O)O2 (stereo unspecified) | > 100 µM | > 100 µM | > 100 µM | > 100 | > 100 µM | > 100 µM | > 100 µM | > 100 µM | > 100 | > 100 |  |  |  |  |  | 
CC(C)(C)OC(=O)N1C(OP(=O)(Oc2ccccc2)Oc2ccccc2)=CSc2ccccc21 | 52 µM | > 100 µM | > 100 µM | 77.6 | > 100 µM | > 100 µM | 66 µM | > 100 µM | > 100 | > 100 |  |  |  |  |  | 
CCN1c2cc(Br)cc3[nH]c(=O)n(c23)CCC1C (stereo unspecified) | > 100 µM | > 100 µM | 31.6 µM | 43.1 | 27.6 µM | 31.6 µM | 65.5 µM | 65.8 µM | 39.7 | 28.1 |  |  |  |  |  | 
Cc1c(/C=N/NC(=S)Nc2ccc(Cl)cc2)c(=O)n(-c2ccccc2)n1C | > 100 µM | 28.2 µM | > 100 µM | 1.99 | 28 µM | > 100 µM | > 100 µM | > 100 µM | > 100 | 31.2 |  |  |  |  |  | 
O=C(Oc1c(Cl)cc(C2(c3cc(Cl)c(OC(=O)c4ccccc4)c(Cl)c3)CCCCC2)cc1Cl)c1ccccc1 | 33.3 µM | 29.2 µM | 22.9 µM | 27.3 | 25.9 µM | 30 µM | 20.7 µM | 29.3 µM | 21.3 | 27.5 |  |  |  |  |  | 
